Drawing on PubChem BioAssay (NCI), this text covers GI50 and TGI for 15 molecules.

Structures are written as SMILES.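 96-well plates; 48 h exposure; 5 concentrations. Endpoints by linear interpolation between flanking doses. Not reached: highest tested concentration assigned. GI50 = concentration required for 50% inhibition of growth. At the TGI there is no net growth.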

Holding throughout (test): NCI-60 cell line screen, 48 h
The subject of experiment [1] is HT29 colon.
For experiment [2], the system named is OVCAR-8 ovarian.
Experiment [3] deals with MCF7 breast.
Experiment [4] concerns SK-OV-3 ovarian.
For experiment [5], the system named is RPMI-8226 leukemia.
Experiment [6] relates to UO-31 renal.
Experiment [7] relates to SN12C renal.
The subject of experiment [8] is HCC-2998 colon.
For experiment [9], the system named is RXF 393 renal.
In experiment [10] the test system is MDA-MB-435.

As to `COc1cc(C(O)c2nc3ccccc3s2)cc(OC)c1OC` (stereo unspecified), the GI50 in [1] is greater than 100 µM; in [2], greater than 100 µM; in [3], 41.3 µM; in experiment [4] it was greater than 100 µM; in [5], 7.9 µM; in [6], 6.2 µM. For the same molecule, the GI50 is greater than 100 µM in [7], greater than 100 µM in experiment [8], greater than 100 µM in [9] and 20.4 µM in experiment [10]. Also, the TGI in experiment [1], in experiment [2], in [3], in [4], in experiment [5] and in experiment [6] was greater than 100 µM in each case. Moreover, the TGI in [7], in experiment [8], in experiment [9] and in experiment [10] was greater than 100 µM each time.
Turning to `O=C1c2ccc3c4c5ccc(c24)C(=O)N1CCCOCCCCOCCCNCc1ccc(cc1)CNCCCOCCCCOCCCN(C3=O)C5=O`, the GI50 in experiment [1] is 0.956 µM; in experiment [2], 1.06 µM; in experiment [3], 0.686 µM; in experiment [4], 1.18 µM; in [5] it was 0.93 µM; in [6], 1.1 µM. The GI50 was 0.816 µM in experiment [7], 0.928 µM in [8], 0.764 µM in [9] and 0.873 µM in experiment [10]. In addition, the TGI came out at 2.36 µM in experiment [1]; 2.74 µM in experiment [2]; 1.6 µM in [3]; 2.66 µM in [4]; 2.49 µM in experiment [5]; 5.12 µM in [6]. Besides, the TGI in experiment [7] was determined as 1.53 µM; in experiment [8] it was 1.68 µM; in experiment [9], 1.57 µM; in experiment [10], 1.59 µM.
`COc1ccc(C(=O)COc2cccc(/C=C3\CSc4ccccc4C3=O)c2)cc1`: the GI50 in experiment [1] was 1.55 µM; in experiment [2] it was 2.65 µM; in experiment [3] it was 0.537 µM; in experiment [4], 10.8 µM; in [5] it was 0.342 µM; in [6], 1.69 µM. The GI50 is 2.63 µM in experiment [7], 1.82 µM in experiment [8], 2.42 µM in experiment [9] and 1.98 µM in experiment [10]. For the same molecule, the TGI is 3.18 µM in [1]; 6.71 µM in experiment [2]; 2.22 µM in [3]; 45.7 µM in experiment [4]; 3.69 µM in [5]; 3.46 µM in experiment [6]. Also, the TGI turned out to be 8.31 µM in [7], 3.39 µM in experiment [8], 5.39 µM in experiment [9] and 4.62 µM in experiment [10].
Turning to `Cc1ccc2c(c1C)-c1c(ccc(C)c1C)C(=O)C2=O`, the TGI stood at 7.43 µM in experiment [1]; 0.905 µM in experiment [2]; 0.809 µM in experiment [3]; 8.41 µM in experiment [4]; 0.559 µM in experiment [5]; 4.36 µM in experiment [6]. The TGI amounted to 2.73 µM in [7], 18 µM in experiment [8], 2.57 µM in [9] and 0.619 µM in experiment [10].
With `C[C@]12CC[C@@H]3c4ccc(O)cc4CC[C@H]3[C@@H]1CC[C@@H]2NS(=O)(=O)c1cccc(C(F)(F)F)c1`, the GI50 in experiment [1] was 3.39 µM; in [2], 4.65 µM; in [3], 2.72 µM; in experiment [4], 4.78 µM; in [5], 3.26 µM; in experiment [6], 2.25 µM. The GI50 is 2.19 µM in experiment [7], 4.58 µM in [8], 2.58 µM in experiment [9] and 2.8 µM in experiment [10]. In addition, the TGI in experiment [1] was 10.2 µM; in experiment [2], 19.3 µM; in experiment [3], 8.49 µM; in [4], 15.3 µM; in experiment [5] it was 14.2 µM; in experiment [6], 11.6 µM. In addition, the TGI in [7] came to 5.97 µM; in experiment [8] it was 17.9 µM; in experiment [9] it was 6.65 µM; in experiment [10] it was 8.62 µM.
For the molecule `C=C1CC2(C[C@@H](c3ccccc3)O[C@@H](c3ccccc3)C2)OC1=O` (stereo partly specified), the TGI came out at 8.97 µM in experiment [1]; 7.48 µM in experiment [2]; 5.73 µM in experiment [3]; 27.8 µM in [4]; 2.57 µM in experiment [5]; 18.4 µM in experiment [6]. For the same molecule, the TGI in experiment [7] was determined as 9.62 µM; in [8], 14.6 µM; in experiment [9], 3.55 µM; in experiment [10] it was 7.48 µM.
With `C=C(C)[C@@H]1CC[C@]2(C(=O)NCCNCCNCCN)CC[C@]3(C)[C@H](CC[C@@H]4[C@@]5(C)CC[C@H](O)C(C)(C)[C@@H]5CC[C@]43C)[C@@H]12`, the GI50 is 14.6 µM in experiment [1]; 18.8 µM in experiment [2]; 13.2 µM in experiment [3]; 17.5 µM in [4]; 2.81 µM in [5]; 11.7 µM in experiment [6]. Further, the GI50 in experiment [7] was 13.5 µM; in [8] it was 14.1 µM; in experiment [9], 13.2 µM; in experiment [10], 13.4 µM. For the same molecule, the TGI was 34 µM in experiment [1]; 47.1 µM in experiment [2]; 29.3 µM in [3]; 36.9 µM in experiment [4]; 27.6 µM in experiment [5]; 24.7 µM in experiment [6]. In addition, the TGI in experiment [7] turned out to be 33.2 µM; in experiment [8], 29.5 µM; in experiment [9] it was 27.2 µM; in experiment [10] it was 27.2 µM.
Turning to `CN(c1ccc(NC(=O)Nc2ccc(OC(F)(F)F)cc2)cc1)c1ccnc(Nc2cccc(S(N)(=O)=O)c2)n1`, the GI50 was 1.35 µM in [1]; 3.07 µM in experiment [2]; 1.06 µM in experiment [3]; 4.65 µM in experiment [4]; 2.7 µM in [5]; 4.63 µM in experiment [6]. The GI50 in experiment [7] is 2.27 µM; in [8], 5.11 µM; in experiment [9], 2.13 µM; in [10], 3.15 µM. Besides, the TGI in experiment [1] came out at 5.95 µM; in experiment [2] it was 7.17 µM; in experiment [3], 5.56 µM; in experiment [4] it was 8.96 µM; in experiment [5], 10.1 µM; in experiment [6], 11.9 µM. The TGI turned out to be 11.5 µM in experiment [7], 9.27 µM in [8], 6.04 µM in [9] and 6.68 µM in [10].
As to `O=C(CCCCCCSc1nc(-c2ccccc2)cc(-c2ccccc2)n1)NO`, the GI50 was 2.02 µM in experiment [1]; 1.79 µM in experiment [2]; 1.31 µM in experiment [3]; 2.42 µM in experiment [4]; 0.405 µM in [5]; 1.09 µM in experiment [6]. Also, the GI50 is 2.9 µM in [7], 3.07 µM in experiment [8], 1.72 µM in [9] and 1.98 µM in [10]. For the same molecule, the TGI amounted to 11.3 µM in [1]; 16.9 µM in experiment [2]; 15.9 µM in experiment [3]; 8.84 µM in experiment [4]; 3.1 µM in [5]; 3.85 µM in experiment [6]. In addition, the TGI was found to be 10.5 µM in [7], 11.9 µM in experiment [8], 4.42 µM in experiment [9] and 11.2 µM in experiment [10].
Take `NC1=C(Br)C(=O)c2ncccc2C1=O`: the TGI in experiment [1] turned out to be 4.3 µM; in experiment [2], 2.24 µM; in experiment [3] it was 1.99 µM; in experiment [4] it was 3.24 µM; in experiment [5] it was 3.81 µM; in experiment [6] it was 1.07 µM. For the same molecule, the TGI in experiment [7] came out at 2.1 µM; in experiment [8], 2.61 µM; in experiment [9] it was 1.32 µM; in experiment [10], 0.313 µM. Also, the values for the GI50 in experiment [3] and in experiment [10] were 0.367 µM and 0.168 µM, respectively.
For the molecule `COc1ccc(C(=O)/C=C/c2c(C(F)(F)F)nc3sccn23)cc1OC`, the GI50 in experiment [1] was 2.01 µM; in experiment [2], 2.4 µM; in [3], 0.766 µM; in experiment [4], 3.41 µM; in experiment [5], 1.62 µM; in [6] it was 8.47 µM. Further, the GI50 is 2.98 µM in [7], 5.07 µM in [8], 2.51 µM in experiment [9] and 1.85 µM in [10]. Besides, the TGI was greater than 100 µM in experiment [1]; greater than 100 µM in [2]; 34.9 µM in experiment [3]; greater than 100 µM in [4]; greater than 100 µM in experiment [5]; greater than 100 µM in experiment [6]. For the same molecule, the TGI is greater than 100 µM in experiment [7], 97.5 µM in experiment [8], 29.8 µM in experiment [9] and greater than 100 µM in experiment [10].
As to `O=Cc1cn(Cc2cccc(Cl)c2)c2ccccc12`, the GI50 was 13 µM in experiment [1]; 10.3 µM in experiment [2]; 1.85 µM in [3]; 1.8 µM in experiment [4]; 4.76 µM in [5]; 5.49 µM in experiment [6]. Also, the GI50 in [7] is 10.7 µM; in [8] it was 12.5 µM; in [10], 12.2 µM. Further, the TGI in experiment [1] amounted to 32.3 µM; in [2] it was 31.3 µM; in experiment [3] it was 19.4 µM; in experiment [4], 16 µM; in experiment [5], 25.2 µM; in experiment [6] it was 21.1 µM. Also, the TGI is 23.5 µM in experiment [7], 26.2 µM in experiment [8], greater than 33 µM in [9] and 28.5 µM in experiment [10].
For the molecule `O=C1/C(=C/c2ccc([N+](=O)[O-])o2)Oc2ccc(Br)cc21`, the GI50 in experiment [1] was 2.64 µM; in [2], 3.01 µM; in experiment [3], 2.05 µM; in experiment [4] it was 17.6 µM; in [5] it was 2.32 µM; in experiment [6], 1.46 µM. Besides, the GI50 in experiment [7] is 1.96 µM; in experiment [8], 8.01 µM; in experiment [9], 1.68 µM; in experiment [10], 1.9 µM. The TGI in [1] amounted to 5.78 µM; in experiment [2], 9.32 µM; in [3], 5.17 µM; in experiment [4] it was 32.2 µM; in [5] it was 6.03 µM; in experiment [6] it was 3.02 µM. Besides, the TGI in [7] was 4.53 µM; in [8], 27.5 µM; in [9], 3.21 µM; in experiment [10], 4.03 µM.
In the case of `NC(=O)c1cc([N+](=O)[O-])c(Cl)c([N+](=O)[O-])c1`, the GI50 is 2.58 µM in experiment [1]; 1.87 µM in [2]; 1.97 µM in experiment [3]; 16.9 µM in experiment [4]; 2.32 µM in [5]; 1.77 µM in experiment [6]. Besides, the GI50 in experiment [7] was 1.8 µM; in experiment [8] it was 2.61 µM; in experiment [9], 1.69 µM; in experiment [10], 5.99 µM. Moreover, the TGI in experiment [1] amounted to 5.51 µM; in experiment [2], 3.63 µM; in experiment [3], 4.06 µM; in [4], 30.6 µM; in experiment [5] it was 5.7 µM; in experiment [6], 3.24 µM. For the same molecule, the TGI amounted to 3.57 µM in experiment [7], 7.46 µM in experiment [8], 3.11 µM in experiment [9] and 19.2 µM in [10].
As to `Cc1nc2sc(C(=O)Nc3cccc4ccccc34)c(N)c2cc1C(=O)/C=C/c1ccccc1`, the GI50 in experiment [1] was 0.173 µM; in experiment [2], 0.534 µM; in [3] it was 0.201 µM; in [4], 1.35 µM; in experiment [5], 0.14 µM; in experiment [6], 0.351 µM. For the same molecule, the GI50 in experiment [7] is 0.415 µM; in experiment [8] it was 0.852 µM; in [9] it was 0.203 µM; in [10] it was 0.116 µM. Moreover, the TGI in [1] was 1.06 µM; in experiment [2], greater than 13.4 µM; in experiment [3], greater than 50 µM; in experiment [4] it was greater than 50 µM; in [5], 0.5 µM; in [6], 1.03 µM. Further, the TGI in experiment [7] was 1.88 µM; in [8], 1.63 µM; in [9], 0.776 µM; in experiment [10], 0.274 µM.
